According to patent US7332512B2, “Halogenated nitrobutadienes for controlling animal pests” (priority 2001, dated 2008):

Key:
Assay type in all cases: in vivo
[1] = tested on: Adults of Ctenocephalides felis; assay: Test with cat fleas/oral uptake (Example L); details: orally, 28 h
Description: Test with Cat Fleas/Oral Uptake
To produce a suitable formulation, a suitable solution of active compound is prepared from 20 mg of active compound and 1 ml of DMSO. 15 μl of this formulation are added to 3 ml of citrated cattle blood and stirred.
10 unfed adult fleas (Ctenocephalides felis, strain “Georgi”) are placed into a chamber (Ø 3.2 cm) whose top and bottom are closed with gauze. A metal cylinder whose underside is covered with parafilm is placed onto the chamber. The cylinder contains the 3 ml of blood/active compound formulation which can be taken up by the fleas through the paraffin membrane. Whereas the blood is warmed to 37° C., the temperature in the area of the flea chambers is adjusted to 25° C. Controls are mixed with the same volume of DMSO, without addition of a compound. The determinations are carried out in triplicate.
After 28 h, the mortality in % (=dead fleas) is determined.
Compounds which effect at least 25% kill of the fleas within 28 h are judged to be effective.

Lucilia cuprina larvae = assay: Blowfly larvae test/development-inhibitory action (Example N); details: 48 h
Description: Blowfly Larvae Test/Development-Inhibitory Action
(§1) 20 mg of active compound are dissolved in 1 ml of dimethyl sulphoxide, more dilute concentrations are prepared by dilution with dist. H2O.
About 20 Lucilia cuprina larvae are introduced into a test tube which contains about 1 cm^3 of horse meat and 0.5 ml of the preparation of active compound to be tested. After 24 and 48 hours, the efficacy of the preparation of active compound is determined. The test tubes are transferred into a beaker whose bottom is covered with sand. After a further 2 days, the test tubes are removed and the pupae are counted.
The efficacy of the preparation of active compound is assessed by the number of flies that have hatched after 1.5 times the period of development of an untreated control. 100% means that no flies have hatched; 0% means that all flies have hatched normally.

[2] = tested on: green peach aphid (Myzus persicae); assay: Myzus test (Example G), infested cabbage leaves dipped; details: 500 ppm active compound, 6 days
Description: (§2) To produce a suitable preparation of active compound, 1 part by weight of active compound is mixed with the stated amounts of solvent and emulsifier, and the concentrate is diluted with emulsifier-containing water to the desired concentration.
Cabbage leaves (Brassica oleracea), which are heavily infested by the green peach aphid (Myzus persicae) are treated by being dipped into the preparation of active compound of the desired concentration.
(§3) After the desired period of time, the kill in % is determined. 100% means that all aphids have been killed; 0% means that none of the aphids have been killed.

[3] = tested on: larvae of the mustard beetle (Phaedon cochleariae); assay: Phaedon larvae test (Example H), dipped cabbage leaves; details: 500 ppm active compound; 6 days
Description: as §2
(§4) Cabbage leaves (Brassica oleracea) are treated by being dipped into the preparation of active compound of the desired concentration and are populated with larvae of the mustard beetle (Phaedon cochleariae) while the leaves are still moist.
(§5) After the desired period of time, the kill in % is determined. 100% means that all beetle larvae have been killed; 0% means that none of the beetle larvae have been killed.

[4] = tested on: caterpillars of the armyworm (Spodoptera frugiperda); assay: Spodoptera frugiperda test (Example J), dipped cabbage leaves; details: 500 ppm active compound; 7 days; % only printed in method b344
Description: Spodoptera frugiperda Test
as §2
Cabbage leaves (Brassica oleracea) are treated by being dipped into the preparation of active compound of the desired concentration and are populated with caterpillars of the armyworm (Spodoptera frugiperda) while the leaves are still moist.
After the desired period of time, the kill in % is determined. 100% means that all caterpillars have been killed; 0% means that none of the caterpillars have been killed.

[5] = tested on: green peach aphid (Myzus persicae); assay: Myzus test (Example A), infested broad bean seedlings dipped; details: 500 ppm active compound, 6 days
Description: To produce a suitable preparation of active compound, 1 part by weight of active compound is mixed with the stated amounts of solvent and emulsifier, and the concentrate is diluted with water to the desired concentration.
Broad bean seedlings (Vicia faba minor) which are infested by the green peach aphid (Myzus persicae) are dipped into a preparation of active compound of the desired concentration and placed into a plastic box.
(§6) After the desired period of time, the kill in % is determined. 100% means that all animals have been killed; 0% means that none of the animals have been killed.

Aphis gossypii = assay: Critical concentration test/root-systemic action (Example E), soil drench; details: 20 ppm in soil; 10 days; root-systemic; savoy cabbage
Description: (§7) Critical Concentration Test/Root-Systemic Action
(§8) To produce a suitable preparation of active compound, 1 part by weight of active compound is mixed with the stated amount of solvent, the stated amount of emulsifier is added and the concentrate is diluted with water to the desired concentration.
(§9) The preparation of active compound is poured onto the soil of the infected savoy cabbage plant. In this way, the active compound can be taken up from the soil by the roots of the plants and can be transported into the leaves. Here, the concentration of active compound in the preparation is virtually immaterial, only the amount by weight per volume unit of soil, which is stated in ppm ([…]), matters.
(§10) The root-systemic action of the active compound is derived from the kill rate. It is 100% if all test animals have been killed and 0% if the number of test insects alive is the same as that for the untreated control.

Myzus persicae [6] = assay: Critical concentration test/root-systemic action (Example F), soil drench; details: 20 ppm in soil; 10 days; root-systemic; savoy cabbage
Description: as §7, §8, §9, §10

Myzus persicae [7] = assay: Critical concentration test/root-systemic action (Example K), compound mixed with soil, broad beans; details: 4 ppm in soil
Description: as §7, §8
The preparation of active compound is mixed intimately with the soil. Here, the concentration of the active compound in the preparation is virtually immaterial, only the amount by weight of active compound per volume unit of soil, which is stated in ppm ([…]) matters. The treated soil is filled into pots of a volume of 250 ml, and pregerminated broad beans are planted into these pots. In this way, the active compound can be taken up from the soil by the plant roots and be transported into the leaves.
The root-systemic action of the active compound is derived from the kill rate. It is 100% if all test animals have been killed and 0% if the number of test insects still alive is exactly the same as in the untreated control.

[8] = tested on: eggs, larvae and pupae of the white fly (Bemisia tabaci); assay: Bemisia test (Example I), infected cotton plants dipped; details: 500 ppm active compound; 6 days
Description: To produce a suitable preparation of active compound, 1 part by weight of active compound is mixed with the stated amounts of solvent and emulsifier, and the concentrate is diluted with water to the desired concentrations.
Cotton plants (Gossypium hirsutum) infected by eggs, larvae and pupae of the white fly (Bemisia tabaci) are dipped into a preparation of active compound of the desired concentration.
as §6

[9] = tested on: eggs of the diamondback moth (Plutella xylostella); assay: Plutella test (Example C), synthetic feed; details: 150 ppm active compound; 7 days; kill of eggs and/or larvae
Description: To produce a suitable preparation of active compound, 1 part by weight of active compound is mixed with the stated amount of solvent and the concentrate is diluted with methanol to the desired concentrations.
The stated amount of the preparation of active compound of the desired concentration is pipetted onto a standardized amount of synthetic feed. After the methanol has evaporated, about 200-300 eggs of the diamondback moth (Plutella xylostella) are placed onto the feed.
After the desired period of time, the kill of the eggs and/or larvae in % is determined. 100% means that all animals have been killed; 0% means that none of the animals have been killed.

[10] = tested on: larvae of the mustard beetle (Phaedon cochleariae); assay: Phaedon larvae test (Example B), dipped cabbage leaves; details: 100 ppm active compound; 6 days
Description: as §2, §4, §5

[11] = tested on: cotton aphid (Aphis gossypii); assay: Aphis gossypii test (Example D), infested cotton leaves dipped; details: 500 ppm active compound; 6 days
Description: as §2
Cotton leaves (Gossypium hirsutum) which are heavily infested by the cotton aphid (Aphis gossypii) are treated by being dipped into the preparation of active compound of the desired concentration.
as §3

[12] = tested on: adult Musca domestica, Reichswald strain (OP, SP, carbamate-resistant); assay: Test with flies (Musca domestica) (Example M), treated filter paper; details: time of reading not given
Description: Test with Flies (Musca domestica)
as §1
2 ml of this active compound preparation are pipetted onto filter paper discs (Ø 9.5 cm) in Petri dishes of corresponding dimensions. After the filter discs have been dried, 25 test animals are transferred into the Petri dishes, which are then covered.
After 1, 3, 5, 24 and 48 hours, the activity of the active compound preparation is determined. 100% means that all flies have been killed; 0% means that none of the flies have been killed.

Row | SMILES | % action/kill ([1]; 20 ppm in cattle blood) [%] | % action/kill ([1]; 100 ppm in cattle blood) [%] | % action/kill (Lucilia cuprina larvae; 20 ppm) [%] | % action/kill (Lucilia cuprina larvae; 100 ppm) [%] | Kill rate in % after 6 d (days) [2] [%] | Kill rate in % after 6 d (days) [3] [%] | Kill rate in % after 6 d (days) [5] [%] | Kill rate in % after 10 d (days) (Aphis gossypii) [%] | Kill rate in % after 10 d (days) (Myzus persicae [6]) [%] | % kill after weeks (Myzus persicae [7]; after 2 weeks) [%] | % kill after weeks (Myzus persicae [7]; after 3 weeks) [%] | % kill after weeks (Myzus persicae [7]; after 4 weeks) [%] | Kill rate in % after 6 d (days) [8] [%] | other results
1 | O=[N+]([O-])/C(C(=C(Cl)Cl)N1CCSCC1)=C1\NCCN1Cc1ccc(Cl)nc1 [Example I-11] | 0 | 70 | 0 | 100 | 100 | 100 |  |  |  |  |  |  |  | 
2 | CN(C(=C(Cl)Cl)/C(=C1/NCCN1Cc1ccc(Cl)nc1)[N+](=O)[O-])C(C)(C)C [Example I-12] | 30 | 70 | 0 | 100 |  |  |  |  |  |  |  |  |  | Rate of activity after 7 d (days) [4]: 100%
3 | Cc1ccc(SC(=C(Cl)Cl)C(=C2NCCN2Cc2ccc(Cl)nc2)[N+](=O)[O-])cc1 [Example I-3, 2-chloro-5-[2-(2-(p-tolylthio)-3,3-dichloro-1-nitroallylidene)imidazolidin-1-ylmethyl]pyridine] | 0 | 50 |  |  |  |  |  |  |  |  |  |  |  | 
4 | O=[N+]([O-])/C(C(Cl)=C(Cl)Cl)=C1\NCCN1Cc1ccc(Cl)nc1 [Example I-1, 2-chloro-5-[2-(2,3,3-trichloro-1-nitroallylidene)imidazolidin-1-ylmethyl]pyridine] |  |  | 0 | 100 |  |  | 100 | 100 | 100 | 100 | 100 | 99 |  | % kill after weeks (Myzus persicae [7]; after 5 weeks): 100%
5 | O=[N+]([O-])/C(C(=C(Cl)Cl)N1CCCC1)=C1\NCCN1Cc1ccc(Cl)nc1 [Example I-10] | 40 | 100 |  |  |  |  |  |  |  |  |  |  | 100 | 
6 | O=[N+]([O-])/C(C(=C(Cl)Cl)N1CCOCC1)=C1\NCCN1Cc1ccc(Cl)nc1 [Example I-2, 2-chloro-5-[2-(2-morpholinyl-3,3-dichloro-1-nitro-allylidene)imidazolidin-1-ylmethyl]pyridine] | 80 | 80 | 0 | 100 | 100 | 100 | 100 | 100 | 100 | 100 | 100 | 99 | 100 | Kill rate in % after 7 d (days) [9]: 100%; Kill rate in % after 6 d (days) [10]: 100%; % action/kill ([1]; 0.8 ppm in cattle blood): 0%; % action/kill ([1]; 4 ppm in cattle blood): 0%; Kill rate in % after 6 d (days) [11]: 100%; % action/kill ([12]; 20 ppm): 0%; % action/kill ([12]; 100 ppm): 50%
